The text below walks through data of patent US20180169145A1, “COMPOSITIONS AND METHODS FOR USING LAMELLAR BODIES FOR THERAPEUTIC PURPOSES” (priority 2015, published 2018).

Assay [1] deals with Pseudomonas aeruginosa. Description: MBEC assay: sessile (biofilm) MIC of antibiotics in absence and presence of LMS-611. The class given is cell-based. The conditions noted are these: for sessile MIC + LMS: in presence of LMS-611 (10 mg/mL); for reduction of sessile MIC of the antibiotic by LMS-611: PA strains, in combination with LMS-611; for MIC: Pseudomonas aeruginosa; for MIC / sessile MIC: antibiotic alone; for effect of LMS-611 with antibiotic in reducing biofilm MICs, compared with antibiotic alone: strain PA01, FIG. 14-17. As for the experimental part: Pseudomonas aeruginosa strains PA01, PAl4, two clinical Cystic Fibrosis (CF) strains […], YH1 and Burkholderia cenocepacia strains […]7 and YHBCC8 were grown on a Nunc Immunosorp PEG plate model for 48 h on a rocking platform. […] Scanning electron microscopy was used to assess the treated biofilms.

Assay [2] concerns Pseudomonas aeruginosa. As to the kind of experiment: Artificial sputum medium (ASM) biofilm assay. The conditions noted are these: for bacterial kill of antibiotic with LMS-611: LMS-611 at 40 μg/ml. The class given is cell-based. The text has this:
ASM is artificial sputum medium.
Images of PA biofilm in ASM. Quantification of bacterial count from the ASM biofilm (CFU/mL).
In vitro, Artificial Sputum Models (ASM), considered to represent biofilm typical of that seen in CF, were used to study Pseudomonas aeruginosa infection.
Pyocyanin, a blue-green phenazine pigment produced by P. aeruginosa and controlled by the quorum sensing system (a system of inter-bacterial signalling which correlates to population density) and thus its presence and concentration in a bacterial culture can be used to give an indication of the strength of quorum sensing activity.
Measurement of metabolic activity of Pseudomonas aeruginosa in the Artificial Sputum Model (ASM) using a Resazurin assay, in which the fluorescence detected is directly proportional to the metabolic activity of the bacteria (FIG. 3).

In the next assay the test system is Burkholderia cenocepacia. Description: MBEC assay: sessile (biofilm) MIC of antibiotics in absence and presence of LMS-611. The class given is cell-based. The conditions noted are these: for MIC: Burkholderia cenocepacia. As for the experimental part:
Pseudomonas aeruginosa strains PA01, PAl4, two clinical Cystic Fibrosis (CF) strains H183, YH1 and Burkholderia cenocepacia strains K56-2, YHBCC5, YHBCC6, YHBCC7 and YHBCC8 were grown on a Nunc Immunosorp PEG plate model for 48 h on a rocking platform. […] Scanning electron microscopy was used to assess the treated biofilms.

A further assay has as its system PA strains. Description: Nebulisation of LMS-611 combined with antibiotic, multistage liquid impactor (MSLI). The conditions noted are these: colistin: PA2783 strain, stages representing site of cystic fibrosis lung disease; tobramycin: PA strain 27853. Details: species or system Pseudomonas aeruginosa. The text has this: FIG. 18 illustrates the effect of nebulisation of LMS-611 when combined with Colistin with PA strain 217M using nebulisers with two different modes of operation (Pari-boy (jet-type) and Pari Flow (oscillating mesh)) wherein a multistage liquid impactor (MSLI) was used to measure the aerodynamic particle size distribution and deposition from nebulised LMS-611 compositions wherein the MSLI from Copley measures particle size in accordance with the European Pharmacopeia guidelines (Chapter […]) and the impactor has five stages simulating the various parts of the human respiratory system. Particles with the same inertia will impact upon a particular stage, whilst smaller particles will pass onto the next impaction stage such that by analysing the amount of LMS-611 deposited on the various stages the fine particle dose and fraction can be calculated wherein the fine particle dose (respirable fraction) is the proportion of the dose from an inhalation device (nebuliser) that is made available to the airways, and this correlates with the dose of LMS-611 that reaches the conducting airways during inhalation;

Where two headings read alike, the source gives them in different places. Where only a bound is given, the exact number is not on record here.

On to `C[C@H]1[C@H](NC(=O)/C(=N\OC(C)(C)C(=O)O)c2csc(N)n2)C(=O)N1S(=O)(=O)O` [Aztreonam], for which the “sessile MIC + LMS” value in the assay on Pseudomonas aeruginosa [1] (PA strain H183) was found to be 2000 µg/mL; in the assay on Pseudomonas aeruginosa [1] (PA strain PA01), 2000 µg/mL; with Pseudomonas aeruginosa [1] (PA strain PA14), 2000 µg/mL; with Pseudomonas aeruginosa [1] (PA strain YH1), 1000 µg/mL. The “reduction of sessile MIC of the antibiotic by LMS-611” value (“reduction” below) in the assay on Pseudomonas aeruginosa [1] was 2-4 fold. The MIC in the assay with Pseudomonas aeruginosa [1] (PA14, PA strain PA14) came to 4000 µg/mL; with Pseudomonas aeruginosa [1] (PA strain H183), 4000 µg/mL; in the assay with Pseudomonas aeruginosa [1] (PA strain PA01) it was 4000 µg/mL; with Pseudomonas aeruginosa [1] (PA strain YH1), 4000 µg/mL.
Take `O=C(O)c1cn(C2CC2)c2cc(N3CCNCC3)c(F)cc2c1=O` [Ciprofloxacin]: the “bacterial kill of antibiotic with LMS-611” value in the assay on Pseudomonas aeruginosa [2] is “total bacterial kill”.
In the case of `C[C@@H](O)[C@H]1C(=O)N2C(C(=O)O)=C(S[C@@H]3CN[C@H](C(=O)N(C)C)C3)[C@H](C)[C@H]12` [Meropenem], the “sessile MIC + LMS” value in the assay on Pseudomonas aeruginosa [1] (PA strain H183) amounted to 1000 µg/mL; in the assay on Pseudomonas aeruginosa [1] (PA strain PA01) it was 2000 µg/mL; in the assay with Pseudomonas aeruginosa [1] (PA strain PA14), 2000 µg/mL; in the assay on Pseudomonas aeruginosa [1] (PA strain YH1), 1000 µg/mL. In the assay on Pseudomonas aeruginosa [1], the “reduction” value is recorded as 1-2 fold. Besides, the MIC in the assay with Pseudomonas aeruginosa [1] (PA14, PA strain PA14) amounted to 2000 µg/mL; in the assay on Pseudomonas aeruginosa [1] (PA strain H183), 2000 µg/mL; with Pseudomonas aeruginosa [1] (PA strain PA01), 2000 µg/mL; in the assay with Pseudomonas aeruginosa [1] (PA strain YH1) it was 2000 µg/mL.
As to `CCN1CCN(C(=O)N[C@@H](C(=O)N[C@@H]2C(=O)N3[C@@H]2SC(C)(C)[C@@H]3C(=O)O)c2ccccc2)C(=O)C1=O` [Piperacillin], the MIC in the assay with Burkholderia cenocepacia (BCC strain K56-2, antibiotic alone, read-out: sessile MIC) came out at 64000 µg/mL; in the assay on Burkholderia cenocepacia (BCC strain K56-2, in presence of LMS-611 (10 mg/mL), read-out: sessile MIC + LMS) it was 16000 µg/mL; with Burkholderia cenocepacia (BCC strain YHBCC5, antibiotic alone, read-out: sessile MIC), 32000 µg/mL; in the assay on Burkholderia cenocepacia (BCC strain YHBCC5, in presence of LMS-611 (10 mg/mL), read-out: sessile MIC + LMS), 4000 µg/mL; in the assay on Burkholderia cenocepacia (BCC strain YHBCC6, antibiotic alone, read-out: sessile MIC) it was 32000 µg/mL; in the assay with Burkholderia cenocepacia (BCC strain YHBCC6, in presence of LMS-611 (10 mg/mL), read-out: sessile MIC + LMS), 32000 µg/mL. Further, the MIC in the assay on Burkholderia cenocepacia (BCC strain YHBCC7, antibiotic alone, read-out: sessile MIC) was found to be 32000 µg/mL; with Burkholderia cenocepacia (BCC strain YHBCC7, in presence of LMS-611 (10 mg/mL), read-out: sessile MIC + LMS) it was 4000 µg/mL; in the assay with Pseudomonas aeruginosa [1] (PA14, PA strain PA14) it was 8000 µg/mL; with Pseudomonas aeruginosa [1] (PA strain H183), 4000 µg/mL; in the assay on Pseudomonas aeruginosa [1] (PA strain PA01), 2000 µg/mL; with Pseudomonas aeruginosa [1] (PA strain YH1), 8000 µg/mL. In addition, the “sessile MIC + LMS” value amounted to 250 µg/mL in the assay on Pseudomonas aeruginosa [1] (PA strain H183), 250 µg/mL with Pseudomonas aeruginosa [1] (PA strain PA01), 1000 µg/mL in the assay with Pseudomonas aeruginosa [1] (PA strain PA14) and 1000 µg/mL in the assay with Pseudomonas aeruginosa [1] (PA strain YH1). Besides, in the assay with Pseudomonas aeruginosa [1], the “reduction” value is listed as 4-16 fold. In addition, in the assay with Pseudomonas aeruginosa [1], the “effect of LMS-611 with antibiotic in reducing biofilm MICs, compared with antibiotic alone” value was “more effective”.
With `NC[C@H]1O[C@H](O[C@H]2[C@H](O)[C@@H](O[C@H]3O[C@H](CO)[C@@H](O)[C@H](N)[C@H]3O)[C@H](N)C[C@@H]2N)[C@H](N)C[C@@H]1O` [Tobramycin], in the assay with Pseudomonas aeruginosa [2], the “bacterial kill of antibiotic with LMS-611” value is recorded as “total bacterial kill”. Further, the “bacterial clearance of LMS-611 plus antibiotic compared to antibiotic treatment alone” value in the assay with Pseudomonas aeruginosa [2] (preformed biofilm, in combination with LMS-611) was “significantly greater bacterial clearance”. For the same compound, the “sessile MIC + LMS” value in the assay on Pseudomonas aeruginosa [1] (PA strain H183) was under 4000 µg/mL; in the assay with Pseudomonas aeruginosa [1] (PA strain PA01), under 4000 µg/mL; in the assay on Pseudomonas aeruginosa [1] (PA strain PA14) it was under 4000 µg/mL; with Pseudomonas aeruginosa [1] (PA strain YH1) it was 500 µg/mL. In addition, in the assay with Pseudomonas aeruginosa [1], the “reduction” value is given as 1-4 fold. For the same compound, the MIC is under 4000 µg/mL in the assay on Pseudomonas aeruginosa [1] (PA14, PA strain PA14); under 4000 µg/mL in the assay on Pseudomonas aeruginosa [1] (PA strain H183); under 4000 µg/mL with Pseudomonas aeruginosa [1] (PA strain PA01); 2000 µg/mL in the assay on Pseudomonas aeruginosa [1] (PA strain YH1). For the same compound, the “bactericidal effect of nebulised antibiotic combined with LMS-611 by MSLI stage” value in the assay on PA strains is “greater on the 6.8 μm, 3.1 μm and 1.7 μm stages”.
As to `CC(C)(O/N=C(\C(=O)N[C@@H]1C(=O)N2C(C(=O)[O-])=C(C[n+]3ccccc3)CS[C@H]12)c1csc(N)n1)C(=O)O` [ceftazidime], the “effect of LMS-611 with antibiotic in reducing biofilm MICs, compared with antibiotic alone” value in the assay on Pseudomonas aeruginosa [1] is reported as “more effective”.
Consider `CC[C@H]1OC(=O)[C@H](C)[C@@H](O[C@H]2C[C@@](C)(OC)[C@@H](O)[C@H](C)O2)[C@H](C)[C@@H](O[C@@H]2O[C@H](C)C[C@H](N(C)C)[C@H]2O)[C@](C)(O)C[C@@H](C)C(=O)[C@H](C)[C@@H](O)[C@]1(C)O` [erythromycin], for which the “reduction” value in the assay on Burkholderia cenocepacia (BCC strains, in combination with LMS-611) is listed as “No effect”.
In the case of Gentamicin, the “sessile MIC” value in the assay on Burkholderia cenocepacia (BCC strain K56-2, antibiotic alone) was 256000 µg/mL; with Burkholderia cenocepacia (BCC strain YHBCC5, antibiotic alone), over 256000 µg/mL; in the assay on Burkholderia cenocepacia (BCC strain YHBCC6, antibiotic alone) it was 64000 µg/mL; with Burkholderia cenocepacia (BCC strain YHBCC7, antibiotic alone), 128000 µg/mL; in the assay on Pseudomonas aeruginosa [1] (PA strain H183), 4000 µg/mL; with Pseudomonas aeruginosa [1] (PA strain PA01), 4000 µg/mL. Further, the results for the “sessile MIC” value in the assay on Pseudomonas aeruginosa [1] (PA strain PA14) and in the assay on Pseudomonas aeruginosa [1] (PA strain YH1) were 4000 µg/mL and 500 µg/mL, respectively. The “sessile MIC + LMS” value in the assay on Burkholderia cenocepacia (BCC strain K56-2, in presence of LMS-611 (10 mg/mL)) was 64000 µg/mL; with Burkholderia cenocepacia (BCC strain YHBCC5, in presence of LMS-611 (10 mg/mL)), 256000 µg/mL; in the assay with Burkholderia cenocepacia (BCC strain YHBCC6, in presence of LMS-611 (10 mg/mL)), 16000 µg/mL; in the assay with Burkholderia cenocepacia (BCC strain YHBCC7, in presence of LMS-611 (10 mg/mL)), 16000 µg/mL; in the assay on Pseudomonas aeruginosa [1] (PA strain H183), 500 µg/mL; in the assay with Pseudomonas aeruginosa [1] (PA strain PA01) it was 500 µg/mL. Further, in the assay on Pseudomonas aeruginosa [1] (PA strain PA14), the “sessile MIC + LMS” value is 500 µg/mL. The “reduction” value in the assay with Pseudomonas aeruginosa [1] is 4-8 fold. For the same compound, the “effect of LMS-611 with antibiotic in reducing biofilm MICs, compared with antibiotic alone” value with Pseudomonas aeruginosa [1] is on record as “more effective”.
For the compound colistin, the “effect of LMS-611 with antibiotic in reducing biofilm MICs, compared with antibiotic alone” value in the assay with Pseudomonas aeruginosa [1] is “more effective”. Moreover, in the assay with PA strains, the “bactericidal effect of nebulised antibiotic combined with LMS-611 by MSLI stage” value was “greatest bactericidal effect”.
